This is an account of results in patent publication US10842151B2, “Small molecule compound for enhancing plant stress resistance” (SHANGHAI INSTITUTES FOR BIOLOGICAL SCIENCES, CHINESE …, priority 2015, dated 2020).

Like-named read-outs stand apart in the source and are kept apart here.

For assay [1], the target named is T1, PYL2 + HAB1 (Arabidopsis thaliana, UniProt O80992).
T1 construct: made in house; host or cells: E. coli BL21 (DE3)
T1 sequence (O80992 14-188 limits assumed): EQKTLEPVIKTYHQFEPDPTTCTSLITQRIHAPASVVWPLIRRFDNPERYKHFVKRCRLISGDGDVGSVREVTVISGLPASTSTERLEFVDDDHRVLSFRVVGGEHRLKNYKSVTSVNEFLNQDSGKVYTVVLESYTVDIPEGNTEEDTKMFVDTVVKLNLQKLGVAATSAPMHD
T1 sequence (Q9CAJ0 172-511 partner limits assumed): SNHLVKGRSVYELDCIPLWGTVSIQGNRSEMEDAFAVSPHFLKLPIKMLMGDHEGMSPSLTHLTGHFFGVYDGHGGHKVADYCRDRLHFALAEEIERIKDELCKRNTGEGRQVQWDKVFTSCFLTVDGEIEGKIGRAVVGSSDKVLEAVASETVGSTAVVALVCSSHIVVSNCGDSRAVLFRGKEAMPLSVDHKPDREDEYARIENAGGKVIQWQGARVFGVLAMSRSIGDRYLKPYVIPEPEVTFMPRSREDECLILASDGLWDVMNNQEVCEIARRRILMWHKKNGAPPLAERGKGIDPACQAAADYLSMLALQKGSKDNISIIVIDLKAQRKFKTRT
Kind of assay: AlphaScreen experiment, PYL2 + HAB1. The assay is classed as binding. The protocol:
(§1) After incubating for 1.5 hours at room temperature in the dark, it was placed into an Envision Plate Reader (available from Perkin Elmer) under the programmed AlphaScreen procedure for readings.

Assay [2] deals with Arabidopsis thaliana Col-0 ecotype seeds. Description: Seed germination, Col-0. The assay is classed as in vivo. Conditions: 1 μM; six days after seeding. An excerpt:
(§2) Two lines of plant were sown simultaneously on a single medium of 6 cm diameter, with 15 seeds sown for each line and 4 replicates for each compound. […]

The target of assay [3] is T2, PYL7 + HAB1 (Arabidopsis thaliana, UniProt Q1ECF1).
T2 construct: made in house; host or cells: E. coli BL21 (DE3)
T2 sequence (Q1ECF1 1-211): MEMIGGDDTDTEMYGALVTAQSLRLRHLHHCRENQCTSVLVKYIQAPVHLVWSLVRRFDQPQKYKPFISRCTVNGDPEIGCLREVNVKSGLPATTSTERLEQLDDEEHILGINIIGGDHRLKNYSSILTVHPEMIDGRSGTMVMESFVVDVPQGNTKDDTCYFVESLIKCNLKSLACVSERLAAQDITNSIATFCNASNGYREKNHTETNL
T2 sequence (Q9CAJ0 172-511 partner limits assumed): T1 sequence (Q9CAJ0 172-511 partner limits assumed)
Description: AlphaScreen experiment, PYL7 + HAB1. The assay is classed as binding. The protocol:
as §1

The subject of assay [4] is Arabidopsis Col-0 ecotype. Kind of assay: Soil drought experiment, Arabidopsis. Format: in vivo, Arabidopsis thaliana. The protocol: Seeds of Arabidopsis Col-0 ecotype were sterilized with NaClO and then sown on ½ MS solid medium at 4° C. for 3 days of vernalization. After 6 days of growing, the well-grown seedlings having uniform size were selected and transferred into 8×7×6 cm^3 pots. Each pot was filled with the same weight of soil and the same number of plants (six plants) was planted to reduce experimental error. All the pots were subjected to a short-day culture at 22° C. After two weeks, watering was stopped for drought treatment. […] The position of the flowerpot was changed every day during the process of drought to reduce the error caused by environmental factors. During the whole drought period, the solution was sprayed twice in total and photos were recorded regularly. The watering was resumed in about three weeks.

For assay [5], the system named is Arabidopsis ABA synthesis defective mutant aba2-1. Format: in vivo, Arabidopsis thaliana. As to conditions: 5 μM sprayed; after two days; vs DMSO.
Assay [6] concerns the target T3, PYR1 + HAB1 (Arabidopsis thaliana, UniProt O49686).
T3 sequence (O49686 1-191): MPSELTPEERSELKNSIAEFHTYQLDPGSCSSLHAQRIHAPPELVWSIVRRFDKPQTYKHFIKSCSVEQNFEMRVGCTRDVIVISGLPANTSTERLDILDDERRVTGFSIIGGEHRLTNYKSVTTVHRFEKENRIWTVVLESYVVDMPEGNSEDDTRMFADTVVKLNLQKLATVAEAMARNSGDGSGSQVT
T3 sequence (Q9CAJ0 172-511 partner): T1 sequence (Q9CAJ0 172-511 partner limits assumed)
Kind of assay: AlphaScreen experiment, PYR1 + HAB1. Format: binding. As to conditions: column 2. The protocol:
as §1

Assay [7] deals with cotton. Description: Cotton leaf transpiration experiment (thermal imaging). As to conditions: 50 μM; after two days; vs DMSO. The assay is classed as in vivo. The protocol:
(§3) Leaf transpiration experiments of soybean and cotton for compound 0720B were carried out at 26° C. with long-day lighting. 16 days and 23 days after sowing, a solution containing 0.1% tween-20 and corresponding concentration of (+)-ABA, or 0720B compound or 0.1% Tween-20 and 0.05% DMSO (control) was sprayed in an amount of 4 ml/pot. Images were taken daily using the FLIR A655sc thermal imaging camera at the same time before and after spraying.

For assay [8], the system named is soybean Williams 82. Kind of assay: Soybean leaf transpiration experiment (thermal imaging). Format: in vivo. As to the method:
After three weeks of continuous watering, 0.05% tween-20 and corresponding concentrations of DMSO (control)/compound (+)-ABA/0918/1127 were sprayed onto the plants in a single administration with an amount of 1.2 ml/pot. Images were taken daily using the FLIR A655sc thermal imaging camera at the same time before and after spraying. The Williams 82 ecotype was used in soybean leaf transpiration experiments for compounds 0604c, 0918 and 1127 and was long-day cultured at 26° C. After the plants grew and had 3 leaves in each of 3 groups, 0.05% tween-20 and 50 μM DMSO (control)/(+)-ABA/0604c/0918/1127 compounds were sprayed in a single administration with an amount of 4 ml/pot. Images were taken daily using the FLIR A655sc thermal imaging camera at the same time before and after spraying.
as §3

Assay [9] concerns pyr1;pyl1;pyl4 triple mutant seeds. Description: Seed germination, PYR/PYL triple mutant. Format: in vivo, Arabidopsis thaliana. As to conditions: 1 μM; six days after seeding.
Text: as §2

Assay [10] has as its system ABA-induced environmental stress-related gene expression. Description: Gene expression analysis (fluorescence quantitative PCR). Format: in vivo, Arabidopsis thaliana (Col-0). Conditions: for expression levels of most ABA-induced stress-related genes compared with ABA: 10 μM, 6 hours of treatment, 10-day-aged seedlings. As to the method:
The whole plant or leaves were taken, and RNA extraction was carried out by using conventional methods. After reverse transcription, the fluorescence quantitative PCR was carried out. Triple biological samples were taken for each treatment which was performed twice. The ACT7 gene was used as a reference gene.

For assay [11], the target named is T1, PYL2 + HAB1. Kind of assay: HAB1 phosphatase activity assay with PYL2, SnRK2.6 phosphorylated polypeptide substrate. Format: biochemical. As to the method: (§4) HAB1 Phosphatase Activity Assay […] The reaction system was incubated at room temperature for 30 minutes, followed by a further reaction for 30 minutes after adding an 11-amono acid phosphorylated polypeptide as a substrate. The phosphorylated polypeptide consisting of amino acid 170-180 of SnRK2.6 protein kinase (sequence […]) was purchased from […] company, wherein phosphorylated […] was a known HAB1 dephosphorylation target site. After 30 minutes, chromogenic reagent (purchased from BioVision) was added and the absorbance at 650 nm was read on a microplate reader (Molecular Devices).

The subject of assay [12] is PYR/PYL receptors (PYR1, PYL1, PYL2 and PYL7)-HAB1 complex. Description: Broad spectrum experiment on PYR/PYL receptors (HAB1 phosphatase activity). Format: biochemical, Arabidopsis. Conditions: 1 μM. As to the method:
as §4

The subject of assay [13] is soybean GmPYL3 and GmPYL6 + Arabidopsis AtHAB1. Kind of assay: AlphaScreen experiment with soybean GmPYL receptors. Format: binding. As to conditions: FIG. 9. As to the method: as §1
The mark [14] stands for this setting: 5 μM sprayed, 18 days after drought.
The mark [15] stands for this setting: 10 μM sprayed, after 17 days of drought.
[16] abbreviates: number in brackets, read-out: Half maximum effect concentration EC50 (PYL2 + HAB1).
Setting [17] is: number in brackets, read-out: Half maximum effect concentration EC50 (PYL7 + HAB1).
Where [18] appears, read: number in brackets, read-out: Half maximum effect concentration EC50 (PYR1 + HAB1).

Turning to `CC1=CC(=O)CC(C)(C)[C@@]1(O)/C=C/C(C)=C\C(=O)O` [ABA, Abscisic Acid, reference compound], the EC50 in assay [1] (Half maximum effect concentration EC50 (PYL2 + HAB1), class, class symbol) was 100 to 1000 nM; in [1] (Half maximum effect concentration EC50 (PYL2 + HAB1), number in brackets) it was 410 nM; in [3] (Half maximum effect concentration EC50 (PYL7 + HAB1), class, class symbol), 1000 to 10000 nM; in assay [3] (Half maximum effect concentration EC50 (PYL7 + HAB1), number in brackets), 1070 nM; in [6] (Half maximum effect concentration EC50 (PYR1 + HAB1), class, class symbol), 100 to 1000 nM; in assay [6] (Half maximum effect concentration EC50 (PYR1 + HAB1), number in brackets), 700 nM. Further, the “germination of Col-0 ecotype seeds” value in assay [2] was “could still inhibit germination of Col-0 ecotype seeds”. Also, the plant survival entry in [4] (setting [14]) and in assay [4] (setting [15]) was “died because of drought” in each case. In addition, the leaf surface temperature result in [5] is recorded as “higher than that of DMSO control group”. Besides, the leaf temperature entry in [7] was “had no difference from that in the control group”; in assay [8] (50 μM sprayed, 0.2 μmol per plant, after three days, vs DMSO), “had no difference with the control”; in assay [8] (two days after spraying, 0720B 20 μM or 50 μM, ABA 50 μM) it was “had no difference from that in the control group”. Further, the “germination of pyr1;pyl1;pyl4 triple mutant seeds” value in [9] is “could not inhibit germination of PYR/PYL triple mutant pyr1;pyl1;pyl4 seeds”.
In the case of `CCCN1C(=O)CCc2cc(NS(=O)(=O)Cc3ccc(C)cc3)ccc21` [AM1, 4-methyl-N-(1,2,3,4-tetrahydro-2-oxo-1-propyl-6-quinolinyl)-benzene methanesulfonamide, reference compound], in assay [1] (setting [16]), the EC50 came to 480 nM. Moreover, the “germination of Col-0 ecotype seeds” value in [2] is “could still inhibit germination of Col-0 ecotype seeds”. Further, in assay [10], the “expression levels of most ABA-induced stress-related genes compared with ABA” value (from here on “expression levels … compared with ABA”) is on record as “lower than the level in the plants treated with 10 μM ABA”. Besides, the “inhibition ratio Z of HAB1 relative enzyme activity (PYL2 + HAB1)” value in assay [11] (at 0.1 μM, Z relative to ABA) was 86%. In addition, in [4] (setting [15]), the plant survival result is “died because of drought”. The leaf surface temperature entry in assay [5] was “higher than that of DMSO control group”. In assay [9], the “germination of pyr1;pyl1;pyl4 triple mutant seeds” value is given as “could not inhibit germination of PYR/PYL triple mutant pyr1;pyl1;pyl4 seeds”.
In the case of `CCCN1C(=O)CCc2cc(NS(=O)(=O)Cc3ccc(C)c(F)c3)ccc21` [Compound 0604c], the EC50 turned out to be 40 nM in assay [1] (setting [16]), 30 nM in [3] (setting [17]) and 40 nM in [6] (setting [18]). The “germination of Col-0 ecotype seeds” value in [2] is reported as “could still inhibit germination of Col-0 ecotype seeds”. For the same compound, the “binding to PYR/PYL receptors” value in assay [12] was “could bind with PYR1/PYL1/PYL2/PYL3/PYL4/PYL5/PYL7/PYL10”. For the same compound, the “binding ability with PYR1/PYL1/PYL2/PYL7 compared with ABA” value in assay [12] (FIG. 1, FIG. 13) was “significantly higher than those of ABA”. Moreover, the “expression levels … compared with ABA” value in [10] was “significantly exceeded the level in the plants treated with 10 μM ABA”. In addition, in assay [10] (one day after treatment, ABA 10 μM), the “expression level of relevant genes compared with ABA” value is “significantly higher than that in the plants treated with 10 μM ABA”. The “affinities for soybean GmPYL proteins compared with ABA” value in [13] is reported as “significantly higher affinities”. For the same compound, the plant survival result in assay [4] (setting [15]) is reported as “still survived”. Moreover, the “germination of pyr1;pyl1;pyl4 triple mutant seeds” value in assay [9] is “could not inhibit germination of PYR/PYL triple mutant pyr1;pyl1;pyl4 seeds”.
On to `CCCn1c(=O)ccc2cc(NS(=O)(=O)Cc3c(F)c(F)c(C)c(F)c3F)ccc21` [Compound 0717], for which the “expression levels … compared with ABA” value in assay [10] is on record as “significantly exceeded the level in the plants treated with 10 μM ABA”.
As for `CCCN1C(=O)CC(C)(C)c2cc(NS(=O)(=O)Cc3c(F)c(F)c(C)c(F)c3F)ccc21` [Compound 0825A], the “inhibition of the dephosphorylation effect of HAB1 on SnRK2.6 phosphorylated polypeptide compared with ABA” value in assay [11] (PYL2 receptor, same concentration as ABA) is reported as “significantly better than that of ABA at the same concentration”.
On to `CCCN1C(=O)CCc2cc(NS(=O)(=O)Cc3ccc(Cl)cc3F)ccc21` [Compound 0925], for which the EC50 in assay [1] (setting [16]) came to 60 nM; in [6] (setting [18]) it was 40 nM.
The like results for `CCCN1C(=O)CCc2cc(NS(=O)(=O)Cc3ccc(C(F)(F)F)c(F)c3)ccc21` [Compound 1020A] were, in that order, 80 nM and 140 nM.
For `CCCN1C(=O)CCc2cc(NS(=O)(=O)Cc3c(F)c(F)c(C(F)(F)F)c(F)c3F)ccc21` [Compound 1020B], in that order: 80 nM and 50 nM.
Consider `CCCN1C(=O)CCc2cc(NS(=O)(=O)Cc3ccc(C)c(Cl)c3)ccc21` [Compound 1103B], for which the EC50 in [1] (setting [16]) was determined as 50 nM; in assay [3] (setting [17]), 150 nM; in [6] (setting [18]), 120 nM.
For `CCCN1C(=O)CCc2cc(NS(=O)(=O)Cc3ccc(C)cc3F)ccc21` [Compound 1125A], in that order: 30 nM, 40 nM and 50 nM.
With `CCCN1C(=O)CCc2cc(NS(=O)(=O)Cc3cc(F)c(C)c(F)c3)ccc21` [Compound 1125B], the EC50 in [1] (setting [16]), in assay [3] (setting [17]) and in assay [6] (setting [18]) was 20 nM throughout. Further, the plant survival result in assay [4] (setting [14]) is reported as “still survived”.
